{"source": "patent US20110162437A1", "about": "“Biomarker for Mitochondrial Toxicity Associated with Phospholipidosis” (priority 2006, published 2011)", "key": {"Male Wistar rats": {"test_system": "Male Wistar rats", "assay": "PAG measurement by 1H NMR in urine after single oral dose, ratio versus time-matched controls", "assay_type": "in vivo, rat", "details": "for PAG: urine, individual animals", "description": "(§1) All animals received (human) care as specified by Swiss law and in accordance with the “Guide for the care and use of laboratory animals” published by the NIH. Male Wistar rats (5 animals/dose-group) were purchased from RCC (Füllingsdorf, Switzerland) and housed individually. Treated animals were dosed orally by gavage with several doses of test compounds (Table 1). Control animals received the same volume of vehicle as placebo. Necropsy was performed 48 (subgroup A) or 168 hours (subgroup B) after a single administration (=Day 1) and urine samples were collected in metabolism cages at 0 to 4° C. (automatically refrigerated by a Tecniplast sampling/cooling unit (RACK B940, Tecniplast, USA)) at the intervals given in the sampling schedule in Table 2 into labelled sample tubes containing 1 ml of an aqueous Na-azide (1%) solution. Before aliquoting, urine volumes were determined.\nUrine samples were taken on day -7,-2,-1, 1, 2, 3, 4, 5, 6 and 7, whereby Day 1 was the Day of dosing.\nImmediately after reaching the end of the sampling period, the volume was determined and the samples were centrifuged at 3000 u/min (500 g) for 10 minutes.\nAliquot: Approximately 2 ml was transferred in 1.8 ml cryvials, round bottom, freestanding, with screw caps and septum for NMR-spectroscopic examinations (Bruker Analytik GmbH, Rheinstetten, Germany, Bruker part No. 85372). The vials were stored at −80° C.\nUrine samples were prepared and measured on a Bruker 500 MHz NMR instrument according to the COMET 1H-NMR protocol (Keun, H. C et al., (2002) Physiological variation and analytical reproducibility in metabonomic urinalysis. Chem. Res. Tox. 15, 1380-1386) and as described above. In total 467 urine samples were analyzed. After measurement, all data were processed by XWINMR 3.5.6 (Bruker Biospin AG, Fällanden). Representative spectra are depicted in FIG. 2. Phase correction and baseline correction were performed with NMRPROC 0.3 (T. Ebbels, H. Keun; Imperial College). Spectral data were binned using AMIX 2.6 (Bruker Biospin AG, Fällanden) following the COMET Data Processing & Pattern Recognition protocol (Keun, H. C., et al., (2002) Physiological variation and analytical reproducibility in metabonomic urinalysis. Chem. Res. Tox. 15, 1380-1386). QC check procedures (Dieterle F., Ross A., Schlotterbeck G., Senn H. (2006) Probabilistic Quotient Normalization as Robust Method to Account for Dilution of Complex Biological Mixtures. Application in 1H NMR Metabonomics. Anal. Chem. 78, 4281-4290) were applied on binned data to detect outliers. In total 7 outliers were detected and removed from further analysis. All data were mean-centered and normalized using the probabilistic quotient normalization (Dieterle F., Ross A., Schlotterbeck G., Senn H. (2006) Probabilistic Quotient Normalization as Robust Method to Account for Dilution of Complex Biological Mixtures. Application in 1H NMR Metabonomics. Anal. Chem. 78, 4281-4290.). All binned data were annotated and transferred to the ANT (ANT: Affymetrix NMR Toxicology Data System) database.\nThe exact PAG quantification was performed according to following procedure: • Baseline subtraction of spectra • Integration of PAG peaks ((=7.47 ppm, (=7.39 ppm, (=3.79 ppm, and (=3.7 ppm respectively) and Citrate region ((=2.66-2.74 ppm and 2.50-2.58 ppm). • Quotient normalization (Dieterle F., Ross A., Schlotterbeck G., Senn H. (2006) Probabilistic Quotient Normalization as Robust Method to Account for Dilution of Complex Biological Mixtures. Application in 1H NMR Metabonomics. Anal. Chem. 78, 4281-4290.) • Divide each of the PAG bins by its average (all spectra) to correct for different relaxation times and number of protons • Calculate median out of the PAG bins • Calculate ratio versus time-matched controls"}, "lymphocytes": {"test_system": "lymphocytes", "assay": "Electron microscopic examination of buffy coat lymphocytes for lamellar bodies (determination of phospholipidosis)", "assay_type": "in vivo, rat", "details": "for Result, PL (grade of severity of phospholipidosis) / lymphocytes %, pos. / lymphocytes positive (with lamellar bodies): individual rats", "description": "as §1\nBlood samples (as much as possible) were withdrawn from all animals at necropsy at about 48 hours after dosing (subgroup A) and about 168 hours after dosing (subgroup B)\nThe samples were collected from the abdominal aorta or by cardiac puncture under terminal anaesthesia (CO2). A total of at least 2 ml blood was required to gain buffy coat (buffy coat=leukocyte band) samples.\nAfter fixation in 2.5% glutaraldehyde, the buffy coat samples from all animals were embedded in Epon. […] All thin sections were examined ultrastructurally. If possible, 200 lymphocytes per sample were examined for lamellar bodies. The results per sample include the total number of lymphocytes examined, the total number of positive lymphocytes (i.e. with lamellar bodies), the percentage of positive lymphocytes and a grading of severity of phospholipidosis (criteria see table 4)"}, "basic pKa value": {"assay": "basic pKa value", "assay_type": "physicochemical"}, "[1]": {"assay": "potential to induce phospholipidosis judged from amphiphilicity and basic pKa", "details": "from reduced amphiphilicity and basic pKa", "source_text": "The structural difference between both molecules can be mainly characterized by the exchange of the piperazine against a morpholine moiety in compound 2."}, "[2]": {"details": "rat, low-dosed animals (300 mg/kg)"}, "[3]": {"details": "300 mg/kg/day, necropsy 168 hours after application"}, "[4]": {"details": "300 mg/kg/day, necropsy 48 hours after application, 300 mg/kg/day"}, "[5]": {"details": "300 mg/kg/day, necropsy 168 hours after application, 300 mg/kg/day"}, "[6]": {"details": "1500 mg/kg/day, necropsy 48 hours after application, 1500 mg/kg/day"}, "[7]": {"details": "1500 mg/kg/day, necropsy 168 hours after application, 1500 mg/kg/day"}}, "note": "Where “and” joins values, the source holds several entries; their conditions need not be identical. Equal values may be shown once."}
{"smiles": "Cc1ccccc1-c1cc(N2CCN(C)CC2)ncc1N(C)C(=O)C(C)(C)c1cc(C(F)(F)F)cc(C(F)(F)F)c1", "note": "[Compound 1, 2-(3,5-Bis-trifluoromethyl-phenyl)-N-methyl-N-[6-(4-methyl-piperazin-1-yl)-4-o-tolyl-pyridin-3-yl]-isobutyramide]", "values": [{"measurement": "PAG", "setting": "Male Wistar rats; High_Dose group, Time 0 (within 8 hours before treatment)", "value": "0.3099 and 0.4951 and 0.2661 and 0.1961 and 0.1580 and 0.3419 and 0.1895 and 0.2711 and 0.3305 and 0.4159"}, {"measurement": "PAG", "setting": "Male Wistar rats; High_Dose group, Time 8 (within 8 hours after treatment)", "value": "0.8523 and 0.4093 and 0.7986 and 0.5172 and 0.2995 and 0.4361 and 0.5473 and 0.4307 and 1.0174 and 0.3275"}, {"measurement": "PAG", "setting": "Male Wistar rats; High_Dose group, Time 24 (within 8 to 24 hours after treatment)", "value": "1.7579 and 1.3035 and 1.4190 and 0.4001 and 0.8788 and 1.2898 and 1.4210 and 1.9488 and 1.6305 and 1.2496"}, {"measurement": "PAG", "setting": "Male Wistar rats; High_Dose group, Time −16 (1 day before treatment)", "value": "0.7486 and 0.5615 and 0.6169 and 0.5637 and 0.4281 and 0.4828 and 0.2993 and 0.4535 and 0.5361 and 0.5442"}, {"measurement": "PAG", "setting": "Male Wistar rats; High_Dose group, Time −144 (7 days before treatment)", "value": "0.7666 and 0.8823 and 1.0974 and 0.6021 and 1.2709 and 1.0355"}, {"measurement": "PAG", "setting": "Male Wistar rats; Low_Dose group, Time 0 (within 8 hours before treatment)", "value": "0.3142 and 0.2440 and 0.3422 and 0.2530 and 0.3700 and 0.6319 and 0.3708 and 0.3307 and 0.2336"}, {"measurement": "PAG", "setting": "Male Wistar rats; Low_Dose group, Time 8 (within 8 hours after treatment)", "value": "1.1423 and 0.5270 and 0.3918 and 0.5331 and 0.6815 and 0.2977 and 0.6756 and 0.7527 and 0.4111 and 0.3688"}, {"measurement": "PAG", "setting": "Male Wistar rats; Low_Dose group, Time 24 (within 8 to 24 hours after treatment)", "value": "0.6300 and 0.8072 and 1.0165 and 0.7250 and 0.5035 and 0.6637"}, {"measurement": "PAG", "setting": "Male Wistar rats; Low_Dose group, Time 48 (2 days after treatment)", "value": "0.7584 and 0.6368 and 0.9878 and 0.6461 and 1.0386 and 0.3452 and 0.5698 and 0.3492 and 0.6477"}, {"measurement": "PAG", "setting": "Male Wistar rats; Low_Dose group, Time −16 (1 day before treatment)", "value": "0.2393 and 0.4349 and 0.5528 and 0.5649 and 0.8171 and 0.3201 and 0.5236 and 0.6045 and 0.4646 and 0.2537"}, {"measurement": "PAG", "setting": "Male Wistar rats; Low_Dose group, Time −144 (7 days before treatment)", "value": "0.8210 and 1.1559 and 0.9260 and 0.7456 and 0.8081 and 0.6038 and 1.5903 and 1.1241 and 0.9275 and 0.8848"}, {"measurement": "increase of mean PAG levels compared to time matched controls", "setting": "Male Wistar rats; rat, high-dosed animals (1500 mg/kg)", "value": 4, "unit": "fold"}, {"measurement": "mean PAG levels remaining elevated until the end of the study", "setting": "Male Wistar rats; rat, high-dosed animals (1500 mg/kg), until 168 h", "value": "3-4 fold"}, {"measurement": "increase of mean PAG levels compared to time matched controls (factor)", "setting": "Male Wistar rats; [2]", "value": "two"}, {"measurement": "mean levels of PAG at time points later than 72 h", "setting": "Male Wistar rats; [2]", "value": "fall below control samples"}, {"measurement": "start of PAG elevation after dosing", "setting": "Male Wistar rats; rat, single oral dose, both dose groups", "value": 24, "unit": "h"}, {"measurement": "dose dependant change of PAG levels in urine", "setting": "Male Wistar rats; rat, single oral dose, both dose groups, normalized to time matched controls", "value": "significant dose dependant elevation"}, {"measurement": "recovery of phospholipidosis 168 hours after application", "setting": "lymphocytes; 300 mg/kg/day", "value": "partial or complete recovery"}, {"measurement": "phospholipidosis severity (group assessment)", "setting": "lymphocytes; 300 mg/kg/day, necropsied 48 hours after application", "value": "minimal to slight"}, {"measurement": "incidence of affected lymphocytes (range over animals)", "setting": "lymphocytes; 300 mg/kg/day, necropsied 48 hours after application, data from 3 animals", "value": "5-12%"}, {"measurement": "incidence of affected lymphocytes (range over animals)", "setting": "lymphocytes; [3]", "value": "0-1%"}, {"measurement": "phospholipidosis severity (group assessment)", "setting": "lymphocytes; [3]", "value": "minimal or not present"}, {"measurement": "recovery of phospholipidosis within 168 hours after application", "setting": "lymphocytes; 1500 mg/kg/day", "value": "no indications of recovery"}, {"measurement": "lymphocytes affected (range)", "setting": "lymphocytes; 1500 mg/kg/day, both time points (48 and 168 hours)", "value": "15-31%"}, {"measurement": "phospholipidosis severity (group assessment)", "setting": "lymphocytes; 1500 mg/kg/day, necropsied 48 hours after application", "value": "moderate to marked"}, {"measurement": "incidence of affected lymphocytes (range over animals)", "setting": "lymphocytes; 1500 mg/kg/day, necropsied 48 hours after application, data from 4 animals", "value": "15-31%"}, {"measurement": "phospholipidosis severity (group assessment)", "setting": "lymphocytes; 1500 mg/kg/day, sacrificed 168 hours after application", "value": "moderate to marked"}, {"measurement": "incidence of affected lymphocytes (range over animals)", "setting": "lymphocytes; 1500 mg/kg/day, sacrificed 168 hours after application, data from 4 animals", "value": "21-31%"}, {"measurement": "Result, PL (grade of severity of phospholipidosis)", "setting": "lymphocytes; [4]", "value": "1 (≦5%: minimal) and 2 (>5-15%: slight) (2×)"}, {"measurement": "lymphocytes %, pos.", "setting": "lymphocytes; [4]", "value": "5% and 5.7% and 12.2%"}, {"measurement": "lymphocytes positive (with lamellar bodies)", "setting": "lymphocytes; [4]", "value": "10 and 8 and 23"}, {"measurement": "Result, PL (grade of severity of phospholipidosis)", "setting": "lymphocytes; [5]", "value": "1 (≦5%: minimal)"}, {"measurement": "lymphocytes %, pos.", "setting": "lymphocytes; [5]", "value": "0% (2×) and 1.1% and 1% and 0.8%"}, {"measurement": "lymphocytes positive (with lamellar bodies)", "setting": "lymphocytes; [5]", "value": "0 (2×) and 2 (2×) and 1"}, {"measurement": "Result, PL (grade of severity of phospholipidosis)", "setting": "lymphocytes; [6]", "value": "3 (>15-25%: moderate) (2×) and 4 (>25: marked) (2×) and (2) (>5-15%: slight)"}, {"measurement": "lymphocytes %, pos.", "setting": "lymphocytes; [6]", "value": "18.8% and 15.1% and 31% and (5.8) % and 25.7%"}, {"measurement": "lymphocytes positive (with lamellar bodies)", "setting": "lymphocytes; [6]", "value": "36 and 19 and 61 and (3) and 29"}, {"measurement": "Result, PL (grade of severity of phospholipidosis)", "setting": "lymphocytes; [7]", "value": "4 (>25: marked) (2×) and 3 (>15-25%: moderate) (2×)"}, {"measurement": "lymphocytes %, pos.", "setting": "lymphocytes; [7]", "value": "31% and 21% and 28.2% and 24%"}, {"measurement": "lymphocytes positive (with lamellar bodies)", "setting": "lymphocytes; [7]", "value": "62 and 42 and 29 and 25"}, {"measurement": "lymphocytes containing cytoplasmic lamellar bodies (finding in words)", "setting": "lymphocytes; rats, single oral dose, necropsy 48 or 168 hours after application", "value": "seen and occurred dose dependently"}, {"measurement": "pKa", "setting": "basic pKa value", "value": 7.67}, {"measurement": "potential to induce phospholipidosis", "setting": "[1]", "value": "high potential"}]}
